These results are taken from patent US20070117814A1, “Fungicidal mixtures” (Basf Aktiengesellschaft, priority 2003, published 2007).

This assay has as its system Plasmopara viticola. The experiment in a line: activity against peronospora of grapevines caused by Plasmopara viticola (protective spray treatment of potted vines). Format: in vivo, Plasmopara viticola on grapevines. The conditions noted are these: individual active compound, Abbot's formula, untreated control 92% infection. The protocol: The active compounds, separately or jointly, were prepared as a stock solution comprising 0.25% by weight of active compound in acetone or DMSO. 1% by weight of the emulsifier Uniperol® EL (wetting agent having emulsifying and dispersant action based on ethoxylated alkylphenols) was added to this solution, and the mixture was diluted with water to the desired concentration.
Use example—activity against peronospora of gravevines caused by Plasmopara viticola
Leaves of potted vines were sprayed to runoff point with an aqueous suspension having the concentration of active compound stated below. The next day, the undersides of the leaves were inoculated with an aqueous sproangal suspension of Plasmopara viticola. The grapevines were then initially placed in a water-vapor-saturated chamber at 24° C. for 48 hours and then in a greenhouse at 20-30° C. for 5 days. After this period of time, the plants were again placed in a humid chamber for 16 hours to promote sporangiophore eruption. The extent of the development of the disease on the undersides of the leaves was then determined visually.
The visually determined percentages of infected leaf areas were converted into efficacies in % of the untreated control:
The efficacy (E) is calculated as follows using Abbot's formula: E=(1−α/β)·100 • α corresponds to the fungicidal infection of the treated plants in % and • β corresponds to the fungicidal infection of the untreated (control) plants in %
An efficacy of 0 means that the infection level of the treated plants corresponds to that of the untreated control plants; an efficacy of 100 means that the treated plants were not infected.
The expected efficacies of mixtures of active compounds were determined using Colby's formula (Colby, S. R. “Calculating synergistic and antagonistic responses of herbicide combinations”, Weeds, 15, 20-22, 1967) and compared with the observed efficacies.
Colby's formula: E=x+y−x·y/100 • E expected efficacy, expressed in % of the untreated control, when using the mixture of the active compounds A and B at the concentrations a and b • x efficacy, expressed in % of the untreated control, when using the active compound A at the concentration a
y efficacy, expressed in % of the untreated control, when using the active compound B at the concentration b

For the compound “2,6-dinitro-4-octylphenyl crotonate und 2,4-dinitro-6-octylphenyl crotonate [II]”, the “Efficacy in % of the untreated control” value came out at 2% (4 ppm in the spray liquor), 2% (16 ppm in the spray liquor) and 2% (63 ppm in the spray liquor).
For the compound `CC1CCN(c2c(-c3c(F)cc(F)cc3F)c(Cl)nc3ncnn23)CC1` [I, 5-chloro-7-(4-methylpiperidin-1-yl)-6-(2,4,6-trifluorophenyl)-[1,2,4]triazolo[1,5-a]pyrimidine], where the note is “16 ppm in the spray liquor”, the “Efficacy in % of the untreated control” value amounted to 56%.
